Results published in US20250313572A1, “MACROCYCLIC MCL-1 INHIBITORS AND METHODS OF USE” (AbbVie Inc., priority 2017, published 2025).
Where two headings read alike, the source gives them in different places.

Key:
[1] = test system: AMO-1 human multiple myeloma tumor cell line; test: AMO-1 cell viability assay (CellTiter-Glo, 24 hours); assay type: cell-based; conditions: Homo sapiens, AMO1, 24 h, read-out: AMO-1 Viability IC50 (μM, 10% FBS), 10% FBS, 24 hours of compound treatment
[2] = biological target: GST-MCL-1 (Homo sapiens, UniProt Q07820); test: TR-FRET MCL-1 binding assay (competition with probe F-Bak)
Outline: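 Displacement of F-Bak from GST-MCL-1 is detected by time-resolved FRET with a Tb-labelled anti-GST antibody, with excitation 340/35 nm and emission 520/525 and 495/510 nm, after 2 hours at room temperature. Compounds were titrated in 11 three-fold steps starting at 25 μM final, in buffer alone or in 10% HS.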

[3] = test system: NCI-H929 human multiple myeloma tumor cell line; test: NCI-H929 cell viability assay (CellTiter-Glo, 24 hours); assay type: cell-based; conditions: Homo sapiens, NCI-H929, 24 h, read-out: H929 Viability IC50 (μM, 10% FBS), 10% FBS, 24 hours of compound treatment
Protocol: Each concentration was tested in duplicate at least 3 independent times. A luminescent signal proportional to the number of viable cells following 24 hours of compound treatment was determined using the CellTiter-Glo® Luminescent Cell Viability Assay according to the manufacturer's recommendations (Promega Corp., Madison, WI). The plates were read in a Perkin Elmer Envision using a Luminescence protocol. To generate dose response curves the data is normalized to percent viability by setting the averages of the staurosporine (10 μM) and DMSO only control wells to 0% and 100% viability respectively.

[4] = MCL-1 Binding Ki (nM, 10% HS), in the presence of 10% HS (human serum)
[5] = without HS, read-out: MCL-1 Binding Ki

Chain of GST-MCL-1 (Q07820 whole entry): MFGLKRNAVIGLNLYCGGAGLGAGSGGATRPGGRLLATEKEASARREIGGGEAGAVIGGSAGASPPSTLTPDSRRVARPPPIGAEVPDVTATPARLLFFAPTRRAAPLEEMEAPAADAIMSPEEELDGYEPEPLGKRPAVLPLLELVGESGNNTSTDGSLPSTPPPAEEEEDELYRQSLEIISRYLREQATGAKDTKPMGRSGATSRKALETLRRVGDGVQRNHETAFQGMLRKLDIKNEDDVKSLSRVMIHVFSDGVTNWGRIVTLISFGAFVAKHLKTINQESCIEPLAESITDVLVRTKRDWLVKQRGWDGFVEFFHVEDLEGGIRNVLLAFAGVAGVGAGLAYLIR

Row | SMILES | IC50 [1] [nM] | Ki [2, 4] [nM] | Ki [2, 5] [nM] | IC50 [3] [nM]
1 | Cc1c2ccc(c1Cl)O[C@H](CN1CCN(C)CC1)COc1ccc(OCc3ccnc(-c4ccccc4OCC(=O)O)n3)c(c1)C[C@H](C(=O)O)Oc1ncnc3sc(-c4ccc(F)cc4)c-2c13 (atropisomer, axis not shown) [Example 24, (7R,16R,21S)-10-({2-[2-(carboxymethoxy)phenyl]pyrimidin-4-yl}methoxy)-19-chloro-1-(4-fluorophenyl)-20-methyl-16-[(4-methylpiperazin-1-yl)methyl]-7,8,15,16-tetrahydro-18,21-etheno-13,9-(metheno)-6,14,17-trioxa-2-thia-3,5-diazacyclononadeca[1,2,3-cd]indene-7-carboxylic Acid] | 38.5 | 0.098 | 0.015 | 157
2 | COCCOCCOCCOc1ccc(-c2nccc(COc3ccc4cc3C[C@H](C(=O)O)Oc3ncnc5sc(-c6ccc(F)cc6)c(c35)-c3c(C)c(Cl)c(c(Cl)c3C)O[C@H](CN3CCN(C)CC3)CO4)n2)cc1 [Example 16, (7R,16R)-19,23-dichloro-1-(4-fluorophenyl)-10-{[2-(4-{2-[2-(2-methoxyethoxy)ethoxy]ethoxy}phenyl)pyrimidin-4-yl]methoxy}-20,22-dimethyl-16-[(4-methylpiperazin-1-yl)methyl]-7,8,15,16-tetrahydro-18,21-etheno-13,9-(metheno)-6,14,17-trioxa-2-thia-3,5-diazacyclononadeca[1,2,3-cd]indene-7-carboxylic Acid] | 0.177 | 0.359 | 0.028 | 0.347
3 | COCCOCCOc1cc(COc2ccc3cc2C[C@H](C(=O)O)Oc2ncnc4sc(-c5ccc(F)cc5)c(c24)-c2c(C)c(Cl)c(c(Cl)c2C)O[C@H](CN2CCN(C)CC2)CO3)nc(-c2ccccc2OC)n1 [Example 169, (7R,16R)-19,23-dichloro-1-(4-fluorophenyl)-10-({6-[2-(2-methoxyethoxy)ethoxy]-2-(2-methoxyphenyl)pyrimidin-4-yl}methoxy)-20,22-dimethyl-16-[(4-methylpiperazin-1-yl)methyl]-7,8,15,16-tetrahydro-18,21-etheno-13,9-(metheno)-6,14,17-trioxa-2-thia-3,5-diazacyclononadeca[1,2,3-cd]indene-7-carboxylic Acid] | 0.306 | 0.631 | 0.03 | 1.15
4 | Cc1c(Cl)c2c(Cl)c(C)c1-c1c(-c3ccc(F)cc3)sc3ncnc(c13)O[C@@H](C(=O)O)Cc1cc(ccc1OCc1ccnc(-c3ccc(OC[C@H]4CN(C)CCCO4)cc3)n1)OC[C@@H](CN1CCN(C)CC1)O2 [Example 175, (7R,16R)-19,23-dichloro-1-(4-fluorophenyl)-20,22-dimethyl-10-{[2-(4-{[(2R)-4-methyl-1,4-oxazepan-2-yl]methoxy}phenyl)pyrimidin-4-yl]methoxy}-16-[(4-methylpiperazin-1-yl)methyl]-7,8,15,16-tetrahydro-18,21-etheno-13,9-(metheno)-6,14,17-trioxa-2-thia-3,5-diazacyclononadeca[1,2,3-cd]indene-7-carboxylic Acid] | 1.64 | 0.122 | < 0.01 | 5.73
5 | COCCOCCOCCOCC1(F)CC=C(c2nccc(COc3ccc4cc3C[C@H](C(=O)O)Oc3ncnc5sc(C6=CCCC6)c(c35)-c3c(C)c(Cl)c(c(Cl)c3C)O[C@H](CN3CCN(C)CC3)CO4)n2)CC1 (single isomer, unassigned) [Example 125, (7R,16R)-19,23-dichloro-1-(cyclopent-1-en-1-yl)-10-({2-[(4S*)-4-fluoro-4-(2,5,8,11-tetraoxadodecan-1-yl)cyclohex-1-en-1-yl]pyrimidin-4-yl}methoxy)-20,22-dimethyl-16-[(4-methylpiperazin-1-yl)methyl]-7,8,15,16-tetrahydro-18,21-etheno-13,9-(metheno)-6,14,17-trioxa-2-thia-3,5-diazacyclononadeca[1,2,3-cd]indene-7-carboxylic Acid] | 0.288 | 0.455 | 0.037 | 1.11
6 | COCCOCCOCCOc1cccc(-c2nccc(COc3ccc4cc3C[C@H](C(=O)O)Oc3ncnc5sc(-c6ccc(F)cc6)c(c35)-c3c(C)c(Cl)c(c(Cl)c3C)O[C@H](CN3CCN(C)CC3)CO4)n2)c1 [Example 104, (7R,16R)-19,23-dichloro-1-(4-fluorophenyl)-10-{[2-(3-{2-[2-(2-methoxyethoxy)ethoxy]ethoxy}phenyl)pyrimidin-4-yl]methoxy}-20,22-dimethyl-16-[(4-methylpiperazin-1-yl)methyl]-7,8,15,16-tetrahydro-18,21-etheno-13,9-(metheno)-6,14,17-trioxa-2-thia-3,5-diazacyclononadeca[1,2,3-cd]indene-7-carboxylic Acid] | 0.0488 | 0.089 | 0.009 | 0.0557
7 | Cc1c(Cl)c2c(Cl)c(C)c1-c1c(-c3ccc(F)cc3)sc3ncnc(c13)O[C@@H](C(=O)O)Cc1cc(ccc1OCc1ccnc(-c3ccc(OCCN4CC5CCC(C4)O5)cc3)n1)OC[C@@H](CN1CCN(C)CC1)O2 [Example 170, (7R,16R)-19,23-dichloro-1-(4-fluorophenyl)-20,22-dimethyl-16-[(4-methylpiperazin-1-yl)methyl]-10-[(2-{4-[2-(8-oxa-3-azabicyclo[3.2.1]octan-3-yl)ethoxy]phenyl}pyrimidin-4-yl)methoxy]-7,8,15,16-tetrahydro-18,21-etheno-13,9-(metheno)-6,14,17-trioxa-2-thia-3,5-diazacyclononadeca[1,2,3-cd]indene-7-carboxylic Acid] | 0.646 | 1.85 | 0.042 | 2.78
8 | COCCOCCOCCOCCOCCOCCOCCOCCOCCOCCOCCC(=O)NCc1ccc(-c2nccc(COc3ccc4cc3C[C@H](C(=O)O)Oc3ncnc5sc(-c6ccc(F)cc6)c(c35)-c3c(C)c(Cl)c(c(Cl)c3C)O[C@H](CN3CCN(C)CC3)CO4)n2)cc1 [Example 50, (7R,16R)-19,23-dichloro-1-(4-fluorophenyl)-20,22-dimethyl-16-[(4-methylpiperazin-1-yl)methyl]-10-({2-[4-(35-oxo-2,5,8,11,14,17,20,23,26,29,32-undecaoxa-36-azaheptatriacontan-37-yl)phenyl]pyrimidin-4-yl}methoxy)-7,8,15,16-tetrahydro-18,21-etheno-13,9-(metheno)-6,14,17-trioxa-2-thia-3,5-diazacyclononadeca[1,2,3-cd]indene-7-carboxylic Acid] | 67.6 | 0.513 | 0.199 | 103
9 | Cc1c(Cl)c2c(Cl)c(C)c1-c1c(-c3ccc(F)cc3)sc3ncnc(c13)O[C@@H](C(=O)O)Cc1cc(ccc1OCc1ccnc(C3(COCCOCCOC[C@H]4COCCO4)CCC3)n1)OC[C@@H](CN1CCN(C)CC1)O2 [Example 72, (7R,16R)-19,23-dichloro-10-{[2-(1-{[2-(2-{[(2R)-1,4-dioxan-2-yl]methoxy}ethoxy)ethoxy]methyl}cyclobutyl)pyrimidin-4-yl]methoxy}-1-(4-fluorophenyl)-20,22-dimethyl-16-[(4-methylpiperazin-1-yl)methyl]-7,8,15,16-tetrahydro-18,21-etheno-13,9-(metheno)-6,14,17-trioxa-2-thia-3,5-diazacyclononadeca[1,2,3-cd]indene-7-carboxylic Acid] | 0.331 | 0.184 | 0.064 | 0.743
10 | CO[C@@H]1CO[C@H]2[C@@H]1OC[C@H]2OCCOCCOc1ccc(-c2nccc(COc3ccc4cc3C[C@H](C(=O)O)Oc3ncnc5sc(-c6ccc(F)cc6)c(c35)-c3c(C)c(Cl)c(c(Cl)c3C)O[C@H](CN3CCN(C)CC3)CO4)n2)cc1 [Example 159, (7R,16R)-19,23-dichloro-1-(4-fluorophenyl)-10-[(2-{4-[2-(2-{[(3R,3aR,6R,6aR)-6-methoxyhexahydrofuro[3,2-b]furan-3-yl]oxy}ethoxy)ethoxy]phenyl}pyrimidin-4-yl)methoxy]-20,22-dimethyl-16-[(4-methylpiperazin-1-yl)methyl]-7,8,15,16-tetrahydro-18,21-etheno-13,9-(metheno)-6,14,17-trioxa-2-thia-3,5-diazacyclononadeca[1,2,3-cd]indene-7-carboxylic Acid] | 0.296 | 0.087 | 0.008 | 0.379
11 | COc1ccccc1-c1nccc(COc2ccc3cc2C[C@H](C(=O)O)Oc2ncnc4sc(-c5ccc(F)cc5)c(c24)-c2ccc(c(Cl)c2C)O[C@H](CN2CCN(C[C@H]4O[C@H](OC)[C@@H](OC)[C@@H](OC)[C@@H]4OC)CC2)CO3)n1 [Example 6, methyl 6-(4-{[(7R,16R,21S)-7-carboxy-19-chloro-1-(4-fluorophenyl)-10-{[2-(2-methoxyphenyl)pyrimidin-4-yl]methoxy}-20-methyl-7,8,15,16-tetrahydro-18,21-etheno-13,9-(metheno)-6,14,17-trioxa-2-thia-3,5-diazacyclononadeca[1,2,3-cd]inden-16-yl]methyl}piperazin-1-yl)-6-deoxy-2,3,4-tri-O-methyl-a-D-mannopyranoside] | 30 | 0.221 | 0.014 | 24
